For the data set the following is noted: Liquid, Ebulliometric method (Recirculating still).

Numbers after ± are expanded uncertainties.

By vapor or sublimation pressure is commonly meant the equilibrium pressure above the liquid or solid. In the case of `CCCCCCBr` [1-bromohexane], the “vapor or sublimation pressure” value (428.5 K) stood at 101.33 ± 1.5 kPa.

Regarding `Cn1ccnc1` [1-methylimidazole], where the note is “471.6 K”, the “vapor or sublimation pressure” value is 101.33 ± 1.4 kPa.

Turning to `CC(C)=O` [acetone], the “vapor or sublimation pressure” value (329.3 K) is given as 101.33 ± 1.5 kPa.

Source of the values: the NIST ThermoML archive (doi:10.1016/j.fluid.2013.11.030).
